This note sets out measurements from US12612412B2, “Antiviral heterocyclic compounds” (Enanta Pharmaceuticals, Inc., priority 2021, dated 2026).

The test system of test [1] is HMPV clinical isolate TN/1501/A1. The experiment in a line: HMPV antiviral assay Method-B (clinical isolate TN/1501/A1 in LLC-MK2 cells, ATP-Lite readout). Conditions: human metapneumovirus, LLC-MK2, 144 h, hMPV WT1501 (clinical isolate TN/1501/A1), 6 days. Type of test: cell-based, Human metapneumovirus (HMPV). The method, then: In vitro HMPV antiviral activity was evaluated using the clinical isolate TN/1501/A1 and LLC-MK2 cells (ATCC #CCL-7), an immortalized kidney epithelial cell line from Macaca mulatta. Compounds were resuspended in dimethyl sulfoxide (DMSO) at 10 mM and added to a 384-well source plate. The compounds were diluted and transferred onto 384-well assay plates using the Echo-650 automated liquid handling system (Beckman Coulter, Indiana). The test compounds were assessed in duplicate at a top concentration of 10 μM followed by 3-fold serial dilutions to give a total of 10 concentration points. DMSO control wells were also included on the assay plates and were either infected or not, acting as positive and negative controls. TN/1501/A1 virus infections were performed in-suspension with LLC-MK2 cells. The cells were washed twice with PBS and removed from the cell-culture flask with 0.25% trypsin-EDTA (Thermo Fisher Scientific, MA). The trypsin-EDTA was inactivated by resuspending in 2% fetal bovine serum (FBS) and OptiMEM (ThermoFisher Scientific, MA) containing 1% penicillin-streptomycin. Cells were pelleted by centrifuging for 5 minutes at 800 rpm, the supernatant was removed, and cells were suspended in PBS plus 100 μg/mL CaCl2). This step was performed twice. Cells were then resuspended in serum-free (SF)-OptiMEM containing 4 μg/mL TPCK-Trypsin (Sigma Aldrich, MO), 1% penicillin-streptomycin (ThermoFisher Scientific, MA) and 100 μg/mL CaCl2). Cells were counted and seeded at a density of 5,000 cells/well, 12.5 μL/well. Virus infections were done at a multiplicity of infection (MOI) of 0.014 with 12.5 μL added per well. SF-OptiMEM, 12.5 μL/well, was added to the appropriate wells to serve as a virus-free negative control for the assay. The final concentration of TPCK-trypsin was 2 μg/mL. Plates were incubated at 37° C., 5% CO2 for 6 days. After 6 days incubation, 12.5 μL of ATP-Lite (PerkinElmer, MA) was added to each well and the raw luminescence values were determined using the Envision 2104 (Perkin Elmer, MA). The average of the raw luminescence values for the cells and virus only positive control wells was subtracted from all conditions tested and the percent cell health was determined by dividing these values by the average of the cells only negative control wells. EC50 values were then calculated by non-linear regression using a four-parameter curve logistic equation. The curve fit model employed was XLFit Dose Response One Site Model 200: y=(A+(B/(1+((x/C)^D)))), where A is the minimum y value, B is the maximum y value, C is the log EC50 value, and D is the slope factor. […] EC50 ranges are as follows: A<0.5 μM; B>0.5 μM.

The test system of test [2] is genotype A, "Long" strain RSV. The experiment in a line: RSV-A assay (CPE protection in Hep-2 cells, ATPlite readout). The settings on record: human respiratory syncytial virus, MOI 0.1, CPE protection. Type of test: cell-based, Human respiratory syncytial virus (HRSV). In short, it runs like this: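 Hep-2 cells (8,000/well) infected with RSV Long strain at MOI 0.1 in the presence of 2-fold compound dilutions in duplicate. After 5 days, cell viability measured by ATPlite luminescence, normalized between virus-only and uninfected cell controls; EC50 reported.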
(ATP-based viability assays read luminescence as a measure of living cells.)

Setting [3] is: genotype A “Long” strain RSV, read-out: Human RSV-A (“Long”).
[4] abbreviates: RSV-A Long strain, read-out: Human RSV-A (“Long”) EC50.

Where two headings read alike, the source gives them in different places.

`Cc1nc2c(OC3CC3)cc(C(=O)NC[C@](O)(c3cc4c(c(-c5ccc(F)cc5)n3)OC[C@]4(C)C(N)=O)C3CC3)cc2cc1Cl` [Example 637]: the EC50 was < 500 nM in test [1] and < 200 nM in test [2] (setting [3]). Consider `Cc1nc2c(OC3CC3)cc(C(=O)NC[C@](O)(c3cc4c(c(-c5ccc(F)c(Cl)c5)n3)OC[C@]4(C)C(N)=O)C(F)(F)F)cc2cc1Cl` [Example 886], for which the EC50 is < 500 nM in test [1] and < 200 nM in test [2] (setting [4]). For the compound `COc1cc(C(=O)NC[C@](O)(c2cc3c(c(-c4ccc(F)cc4)n2)OC[C@]3(C)C(N)=O)C2CC2)cc2sc(C3CC3)nc12` [Example 741], the results for the EC50 in test [1] and in test [2] (setting [3]) were < 500 nM and < 200 nM, respectively.

With `COc1cc(C(=O)NC[C@](O)(c2cc3c(c(-c4ccc5c(c4)OC(F)(F)O5)n2)OC[C@]3(C)C(N)=O)C2(F)CC2)cc2cn(C3CC3)nc12` [Example 712], the EC50 in test [1] is < 500 nM; in test [2] (setting [3]) it was < 200 nM. `COc1cc(C(=O)NC[C@](O)(c2cc3c(c(-c4cccc(Br)c4F)n2)OC[C@]3(C)C(N)=O)C2CC2)cc2cc(Cl)c(C)nc12` [Example 1092]: the EC50 in test [1] is < 500 nM; in test [2] (setting [4]) it was < 200 nM. As to `COc1cc(C(=O)NC[C@](O)(c2cc3c(c(-c4ccc5c(c4)OC(F)(F)O5)n2)OC[C@]3(C(N)=O)C(F)F)C2CC2)cc2cn(C3CC3)nc12` [Example 1010], the values for the EC50 in test [1] and in test [2] (setting [4]) were > 500 nM and > 200 nM, respectively. For `COc1cc(C(=O)NC[C@](O)(c2cc3c(c(-c4ccc5c(c4)OC(F)(F)O5)n2)OC[C@@]3(C(N)=O)C(F)F)C2CC2)cc2cn(C(F)F)nc12` [Example 1044], in that order: < 500 nM and < 200 nM.

On to `C[C@]1(C(N)=O)COc2c1cc([C@@](O)(CNC(=O)c1cc(OCC(F)F)c3nn(C4(F)CC4)cc3c1)C(F)(F)F)nc2-c1csc2c(F)cccc12` [Example 611], for which the EC50 was < 500 nM in test [1] and < 200 nM in test [2] (setting [3]). For `C[C@]1(C(N)=O)COc2c1cc([C@@](O)(CNC(=O)c1cc(OC3CC3)c3nn(C4(F)CC4)cc3c1)C(F)(F)F)nc2-c1cc(Cl)c(F)cc1F` [Example 615], in that order: < 500 nM and < 200 nM.

In the case of `C[C@]1(C(N)=O)COc2c1cc([C@@](O)(CNC(=O)c1cc(F)c3nc(N)sc3c1)C1CC1)nc2-c1ccc2c(c1)OC(F)(F)O2` [Example 827], the EC50 is < 500 nM in test [1] and < 200 nM in test [2] (setting [4]). Turning to `COc1cc(C(=O)NC[C@](O)(c2cc3c(c(-c4ccc(F)cc4Cl)n2)OC[C@]3(C)C(N)=O)C2(F)CC2)cc2cc(Cl)c(C)nc12` [Example 734], the EC50 was < 500 nM in test [1] and < 200 nM in test [2] (setting [3]). For `Cc1cnc2c(Cl)cc(C(=O)NC[C@](O)(c3cc4c(c(-c5csc6c(F)cccc56)n3)OC[C@]4(C)C(N)=O)C(F)(F)F)cc2c1` [Example 601], in that order: < 500 nM and < 200 nM. For `Cc1cnc2c(Cl)cc(C(=O)NC[C@](O)(c3cc4c(c(-c5ccc(F)cc5)n3)OC[C@]4(C)C(N)=O)C3CC3)cc2c1` [Example 740], in that order: < 500 nM and < 200 nM.

With `COc1cc(C(=O)NC[C@](O)(c2cc3c(c(-c4cc5c(cc4Cl)OC(F)(F)O5)n2)OC[C@]3(C)C(N)=O)C2CC2)cc2cn(C3CC3)nc12` [Example 1231], the EC50 in test [1] was < 500 nM; in test [2] (setting [4]), < 200 nM. On to `C[C@]1(C(N)=O)COc2c1cc([C@@](O)(CNC(=O)c1cc(OC3CC3)c3nn(C4(F)CC4)cc3c1)C1CC1)nc2-c1csc2c(F)cccc12` [Example 607], for which the EC50 in test [1] is < 500 nM; in test [2] (setting [3]) it was < 200 nM. For `C[C@]1(C(N)=O)COc2c1cc([C@@](O)(CNC(=O)c1cc(F)c3nc(C4CC4)cn3c1)C(F)(F)F)nc2-c1ccc2c(c1)OC(F)(F)O2` [Example 548], in that order: < 500 nM and < 200 nM. As to `C[C@]1(C(N)=O)COc2c1cc([C@@](O)(CNC(=O)c1cc(Cl)c3nn(C4CC4)cc3c1)C(F)(F)F)nc2-c1csc2c(F)cccc12` [Example 609], the EC50 is < 500 nM in test [1] and < 200 nM in test [2] (setting [3]). `COc1cc(C(=O)NC[C@](O)(c2cc3c(c(-c4cnc(C#N)c(Cl)c4)n2)OC[C@]3(C)C(N)=O)C(F)(F)F)cc2cn(C(F)F)nc12` [Example 582]: the EC50 in test [1] was > 500 nM; in test [2] (setting [3]), < 200 nM. `COc1cc(C(=O)NC[C@](O)(c2cc3c(c(-c4ccc(F)c(Cl)c4)n2)OC[C@@]3(C(N)=O)C(F)F)C(F)(F)F)cc2cn(C3CC3)nc12` [Example 1003]: the EC50 in test [1] is < 500 nM; in test [2] (setting [4]), < 200 nM. For `COc1ncc2cc(C(=O)NC[C@](O)(c3cc4c(c(-c5ccc(F)cc5)n3)OC[C@]4(C)C(N)=O)C3CC3)cc(OC)c2n1` [Example 1144], in that order: > 500 nM and < 200 nM. Regarding `COc1cc(C(=O)NC[C@@](O)(c2cc3c(c(C4=CCC(F)(F)CC4)n2)OC[C@]3(C)C(N)=O)C(F)(F)F)cc2cn(C3CC3)nc12` [Example 1229], the EC50 is > 500 nM in test [1] and > 200 nM in test [2] (setting [4]).

As for `Cc1cnc2c(OC(F)F)cc(C(=O)NC[C@](O)(c3cc4c(c(-c5cc(Br)c(F)cc5F)n3)OC[C@]4(C)C(N)=O)C3CC3)cc2c1` [Example 1106], the figures for the EC50 in test [1] and in test [2] (setting [4]) were < 500 nM and < 200 nM, respectively. As for `Cc1cnc2c(Cl)cc(C(=O)NC[C@](O)(c3cc4c(c(-c5cc(F)c(F)c(Cl)c5)n3)OC[C@]4(C)C(N)=O)C3CC3)cc2c1` [Example 792], the EC50 was < 500 nM in test [1] and < 200 nM in test [2] (setting [3]). With `COc1cc(C(=O)NC[C@](O)(c2cc3c(c(-c4ccc(F)c(C(F)(F)F)c4)n2)OC[C@]3(C)C(N)=O)C(F)(F)F)cc2cn(C3CC3)nc12` [Example 974], the EC50 was < 500 nM in test [1] and < 200 nM in test [2] (setting [4]). For `COc1cc(C(=O)NC[C@](O)(c2cc3c(c(-c4ccc5cc[nH]c5c4)n2)OC[C@]3(C)C(N)=O)C(F)(F)F)cc2cn(C3CC3)nc12` [Example 970], in that order: > 500 nM and > 200 nM. For `Cc1nc2c(OC3CC3)cc(C(=O)NC[C@](O)(c3cc4c(c(-c5ccc(F)c(Cl)c5)n3)OC[C@]4(C)C(N)=O)C3CC3)cc2cc1Cl` [Example 638], the EC50 in test [1] is < 500 nM; in test [2] (setting [3]), < 200 nM. For `COc1cc(C(=O)NC[C@](O)(c2cc3c(c(-c4cc(F)c(F)c(Cl)c4)n2)OC[C@]3(C)C(N)=O)C(F)(F)F)cc2cc(Cl)c(C)nc12` [Example 784], in that order: < 500 nM and < 200 nM. For `C[C@]1(C(N)=O)COc2c1cc([C@@](O)(CNC(=O)c1cc(F)c3nn(C(F)F)cc3c1)C1CC1)nc2-c1ccc(F)c(Cl)c1F` [Example 571], in that order: < 500 nM and < 200 nM.

`COc1cc(C(=O)NC[C@](O)(c2cc3c(c(-c4ccc(F)cc4)n2)OC[C@]3(C)C(N)=O)C(F)(F)F)cc2cn(C3(O)CC3)nc12` [Example 821]: the EC50 is > 500 nM in test [1] and < 200 nM in test [2] (setting [3]). In the case of `C[C@]1(C(N)=O)COc2c1cc([C@@](O)(CNC(=O)c1cc(Cl)c3nn(C4CC4)cc3c1)C1(F)CC1)nc2-c1csc2c(F)cccc12` [Example 631], the EC50 in test [1] was < 500 nM. Same read-out and setting: to `C[C@]1(C(N)=O)COc2c1cc([C@@](O)(CNC(=O)c1cc(Cl)c3nn(C4CC4)cc3c1)C1CC1)nc2-c1cc(Cl)c(F)c(Cl)c1` [Example 680] belongs > 500 nM; to `COc1cc(C(=O)NC[C@](O)(c2cc3c(c(-c4csc5c(F)cccc45)n2)OC[C@]3(C)C(N)=O)C2(F)CC2)cc2cn(C3CC3)nc12` [Example 632], < 500 nM. Consider `COc1cc(C(=O)NC[C@](O)(c2cc3c(c(-c4cc(Br)c(F)cc4F)n2)OC[C@]3(C)C(N)=O)C(F)(F)F)cc2cn(C3CC3)nc12` [Example 958], for which the EC50 in test [1] was < 500 nM.

With `COc1cc(C(=O)NC[C@](O)(c2cc3c(c(-c4cc(Cl)c(F)c(Cl)c4)n2)OC[C@]3(C)C(N)=O)C2CC2)cc2cn(C(F)F)nc12` [Example 677], in test [1], the EC50 is > 500 nM.
